One series deals with sodium channel. Nature of the series: Guanidine influx assay (14C-guanidine radiotracer flux, in vitro). The class given is cell-based, human or rat. The note with it: guanidine influx assay using a known cell line that expresses a sodium channel. The gist of the method: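 IC50 derives from a four-parameter logistic fit of 14C-guanidine uptake, test agent serially half-diluted around a 1 μM midpoint. Flux was driven by aconitine in low-sodium HEPES/choline saline at ambient temperature, using endogenous or recombinant human or rat sodium-channel cell lines plated ~100,000/well for 20–24 h.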

The target in the next series is CYP3A4 (Homo sapiens, UniProt P08684). As to the kind of experiment: Cytochrome P450 (CYP450) Inhibition Assay, CYP3A4 (Vivid fluorescence, BOMCC substrate). Particulars: human, P450 Baculosomes (recombinant CYP3A4), probe BOMCC (Vivid substrate).
CYP3A4, sequence (P08684 whole entry): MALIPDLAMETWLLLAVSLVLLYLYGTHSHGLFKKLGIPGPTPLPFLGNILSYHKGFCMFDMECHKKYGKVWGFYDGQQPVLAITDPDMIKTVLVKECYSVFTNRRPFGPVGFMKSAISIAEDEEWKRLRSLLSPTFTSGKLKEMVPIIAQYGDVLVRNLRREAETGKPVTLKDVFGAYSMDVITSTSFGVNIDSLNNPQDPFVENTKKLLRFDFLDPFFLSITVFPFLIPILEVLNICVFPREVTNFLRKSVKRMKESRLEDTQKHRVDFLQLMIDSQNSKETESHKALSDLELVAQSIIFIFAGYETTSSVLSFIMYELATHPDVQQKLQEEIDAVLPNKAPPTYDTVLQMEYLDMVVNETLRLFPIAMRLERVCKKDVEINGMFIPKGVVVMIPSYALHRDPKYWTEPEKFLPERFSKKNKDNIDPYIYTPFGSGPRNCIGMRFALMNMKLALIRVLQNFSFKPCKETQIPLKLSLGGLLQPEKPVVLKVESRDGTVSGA

pIC50: −log10 of the molar value.

By melting point is commonly meant the temperature, or range, at which the solid turns liquid. In general, pIC50 refers to the negative decadic logarithm of the IC50, by convention in mol/L. By inhibition is commonly meant the percentage by which the read-out fell short of the control. Compound `CC(C)(C)OC(=O)Nc1ccc(CN2C(=O)C3(COc4cc5c(cc43)OCCO5)c3ccccc32)cn1` (stereo not drawn) [Example 9.40, tert-butyl {5-[(2′-oxo-2,3-dihydrospiro[furo[2,3-g][1,4]benzodioxine-8,3′-indol]-1′(2′H)-yl)methyl]pyridin-2-yl}carbamate] registered a melting point of 238 to 239 °C. The pIC50 in the series with sodium channel (activity level class) was 6.00 to 7.00. Also, the inhibition at 10 µM at CYP3A4 is less than 50%.
Taken in the same sequence, the figures for `Cc1noc2cc3c(cc12)C1(CO3)C(=O)N(Cc2ccccc2C(F)(F)F)c2ccccc21` (stereo not drawn) [Example 9.41, 3-methyl-1′-[2-(trifluoromethyl)benzyl]spiro[furo[3,2-f][1,2]benzisoxazole-5,3′-indol]-2′(1′H)-one] were 192 to 194 °C, 6.00 to 7.00 and greater than 50%.
In the same order, the values of `Cc1noc2cc3c(cc12)C1(CO3)C(=O)N(Cc2ncccc2C(F)(F)F)c2ccccc21` (stereo not drawn) [Example 9.42, 3-methyl-1′-{[3-(trifluoromethyl)pyridin-2-yl]methyl}spiro[furo[3,2-f][1,2]benzisoxazole-5,3′-indol]-2′(1′H)-one] are 221 to 222 °C, 6.00 to 7.00 and greater than 50%.
As to `O=C1N(CCCOCc2ccccc2)c2ccccc2C12COc1cc3c(cc12)OCCO3` (stereo not drawn) [Example 9.43, 1′-[3-(benzyloxy)propyl]-2,3-dihydrospiro[furo[2,3-g][1,4]-benzodioxine-8,3′-indol]-2′(1′H)-one], the melting point was 37 to 38 °C. The pIC50 with sodium channel (activity level class) is 7.00 to 9.00. In addition, at CYP3A4, the inhibition at 10 µM is less than 50%.
Taken in the same sequence, the figures for `CCOC(=O)CN1C(=O)C2(COc3cc4c(cc32)OCCO4)c2ccccc21` (stereo not drawn) [Example 9.44, ethyl (2′-oxo-2,3-dihydrospiro[furo[2,3-g][1,4]benzodioxine-8,3′-indol]-1′(2′H)-yl)acetate] were 58 to 59 °C, 7.00 to 9.00 and less than 50%.
Compound `CC1(C)OC[C@H](CN2C(=O)C3(COc4cc5c(cc43)OCCO5)c3ccccc32)O1` (stereo partly drawn) [Example 9.45, 1′-{[(4S)-2,2-dimethyl-1,3-dioxolan-4-yl}methyl]-2,3-dihydrospiro[furo[2,3-g][1,4]benzodioxine-8,3′-indol]-2′(1′H)-one] returned a melting point of 55 to 57 °C. In addition, the pIC50 in the series on sodium channel (activity level class) is 7.00 to 9.00. Besides, the inhibition at 10 µM on CYP3A4 was greater than 50%.
Consider `COc1ccc(CN2C(=O)C3(COc4cc(OC)c(C#N)cc43)c3ccccc32)cc1` (stereo not drawn) [Example 9.46, 6-methoxy-1′-(4-methoxybenzyl)-2′-oxo-1′,2′-dihydrospiro[1-benzofuran-3,3′-indole]-5-carbonitrile], for which the melting point fell in the range of 207 to 208 °C. Also, the pIC50 in the series with sodium channel (activity level class) is 6.00 to 7.00. The inhibition at 10 µM at CYP3A4 is greater than 50%.
As to `COc1cc2c(cc1C#N)C1(CO2)C(=O)N(Cc2ccccn2)c2ccccc21` (stereo not drawn) [Example 9.47, 6-methoxy-2′-oxo-1′-(pyridin-2-ylmethyl)-1′,2′-dihydrospiro[1-benzofuran-3,3′-indole]-5-carbonitrile], the melting point was 187 to 189 °C. In the series with sodium channel (activity level class), the pIC50 is 5.00 to 6.00. Further, the inhibition at 10 µM on CYP3A4 is greater than 50%.
Regarding `N#Cc1cc2c(cc1F)OCC21C(=O)N(Cc2ccccn2)c2ccccc21` (stereo not drawn) [Example 9.48, 6-fluoro-2′-oxo-1′-(pyridin-2-ylmethyl)-1′,2′-dihydrospiro[1-benzofuran-3,3′-indole]-5-carbonitrile], the melting point was 108 to 109 °C. Also, the pIC50 in the series on sodium channel (activity level class) was 5.00 to 6.00. Besides, on CYP3A4, the inhibition at 10 µM is greater than 50%.
`N#Cc1cc2c(cc1F)OCC21C(=O)N(Cc2ncccc2C(F)(F)F)c2ccccc21` (stereo not drawn) [Example 9.51, 6-fluoro-2′-oxo-1′-{[3-(trifluoromethyl)pyridin-2-yl]methyl}-1′,2′-dihydrospiro[1-benzofuran-3,3′-indole]-5-carbonitrile] gave a melting point of 209 to 211 °C. The pIC50 in the series with sodium channel is 5.00 to 6.00. Moreover, at CYP3A4, the inhibition at 10 µM is less than 50%.
In the same order, the values of `COC(=O)c1cccc(CN2C(=O)C3(COc4cc5c(cc43)OCCO5)c3ccccc32)c1` (stereo not drawn) [Example 9.53, methyl 3-[(2′-oxo-2,3-dihydrospiro[furo[2,3-g][1,4]benzodioxine-8,3′-indol]-1′(2′H)-yl)methyl]benzoate] are 89 to 97 °C, 7.00 to 9.00 and greater than 50%.
Taken in the same sequence, the figures for `Cc1noc2cc3c(cc12)C1(CO3)C(=O)N(CCC(C)C)c2ccccc21` (stereo not drawn) [Example 9.55, 3-methyl-1′-(3-methylbutyl)spiro[furo[3,2-f][1,2]benzisoxazole-5,3′-indol]-2′(1′H)-one] were 135 to 138 °C, 7.00 to 9.00 and greater than 50%.
`Cc1noc2cc3c(cc12)C1(CO3)C(=O)N(Cc2cnccn2)c2ccccc21` (stereo not drawn) [Example 9.56, 3-methyl-1′-(pyrazin-2-ylmethyl)spiro[furo[3,2-f][1,2]benzisoxazole-5,3′-indol]-2′(1′H)-one] showed a melting point of 170 to 173 °C. Further, the pIC50 in the series with sodium channel was 7.00 to 9.00. The inhibition at 10 µM at CYP3A4 is less than 50%.
Taken in the same sequence, the figures for `Cc1noc2cc3c(cc12)C1(CO3)C(=O)N(Cc2ncccc2F)c2ccccc21` (stereo not drawn) [Example 9.57, 1′-[(3-fluoropyridin-2-yl)methyl]-3-methylspiro[furo[3,2-f][1,2]benzisoxazole-5,3′-indol]-2′(1′H)-one] were 167 to 169 °C, 6.00 to 7.00 and less than 50%.
In the same order, the values of `COC(=O)c1coc(CN2C(=O)C3(COc4cc5onc(C)c5cc43)c3ccccc32)n1` (stereo not drawn) [Example 9.58, methyl 2-[(3-methyl-2′-oxospiro[furo[3,2-f][1,2]benzisoxazole-5,3′-indol]-1′(2′H)-yl)methyl]-1,3-oxazole-4-carboxylate] are 148 to 152 °C, 6.00 to 7.00 and less than 50%.
In the case of `COC(=O)c1ccc(CN2C(=O)C3(COc4cc5c(cc43)OCCO5)c3ccccc32)cc1` (stereo not drawn) [Example 9.59, methyl 4-[(2′-oxo-2,3-dihydrospiro[furo[2,3-g][1,4]benzodioxine-8,3′-indol]-1′(2′H)-yl)methyl]benzoate], the melting point is 167 to 169 °C. Moreover, the pIC50 in the series with sodium channel is 7.00 to 9.00. Moreover, the inhibition at 10 µM at CYP3A4 is less than 50%.
With `O=C1N(CC2CN(Cc3ccccc3)CCO2)c2ccccc2C12COc1cc3c(cc12)OCCO3` (stereo not drawn) [Example 9.60, 1′-[(4-benzylmorpholin-2-yl)methyl]-2,3-dihydrospiro[furo[2,3-g][1,4]benzodioxine-8,3′-indol]-2′(1′H)-one], the melting point lay in the range of 88 to 100 °C. For the same compound, in the series with sodium channel, the pIC50 is 6.00 to 7.00. Also, the inhibition at 10 µM at CYP3A4 was greater than 50%.
For the compound `O=C1c2ccccc2C(=O)N1CCCN1C(=O)C2(COc3cc4c(cc32)CCO4)c2ccccc21` (stereo not drawn) [Example 9.66, 2-[3-(2′-oxo-5,6-dihydrospiro[benzo[1,2-b:5,4-b′]difuran-3,3′-indol]-1′(2′H)-yl)propyl]-1H-isoindole-1,3(2H)-dione], the melting point was in the range of 214 to 217 °C. The pIC50 in the series on sodium channel is 7.00 to 9.00. Also, the inhibition at 10 µM at CYP3A4 was greater than 50%.
The compound `O=C1N(Cc2ccc(OCc3ccccc3)cn2)c2ccccc2C12COc1ccc3nonc3c12` (stereo not drawn) [Example 9.67, 1-{[5-(benzyloxy)pyridin-2-yl]methyl}spiro[furo[3,2-e][2,1,3]benzoxadiazole-8,3′-indol]-2′(1′H)-one] registered a melting point of 209 to 212 °C. Also, the pIC50 with sodium channel is 6.00 to 7.00. In addition, at CYP3A4, the inhibition at 10 µM was less than 50%.
In the same order, the values of `COCCOCCN1C(=O)C2(COc3cc4c(cc32)OCCO4)c2c1ccc1ncsc21` (stereo not drawn) [Example 9.71, 6′-[2-(2-methoxyethoxy)ethyl]-2,3-dihydrospiro[furo[2,3-g][1,4]benzodioxine-8,8′-[1,3]thiazolo[5,4-e]indol]-7′(6′H)-one] are 156 to 158 °C, 6.00 to 7.00 and greater than 50%.
The compound `O=C1N(Cc2ccccn2)c2ccc3ncsc3c2C12COc1cc3c(cc12)OCCO3` (stereo not drawn) [Example 9.72, 6′-(pyridin-2-ylmethyl)-2,3-dihydrospiro[furo[2,3-g][1,4]-benzodioxine-8,8′-[1,3]thiazolo[5,4-e]indol]-7′(6′H)-one] had a melting point of 156 to 158 °C. Also, the pIC50 in the series on sodium channel is 6.00 to 7.00. Besides, on CYP3A4, the inhibition at 10 µM was greater than 50%.
In the same order, the values of `COCCOCCN1C(=O)C2(COc3cc4c(cc32)OCCO4)c2c(OC)cc(OC)cc21` (stereo not drawn) [Example 9.73, 4′,6′-dimethoxy-1′-[2-(2-methoxyethoxy)ethyl]-2,3-dihydrospiro[furo[2,3-g][1,4]benzodioxine-8,3′-indol]-2′(1′H)-one] are 158 to 160 °C, 5.00 to 6.00 and greater than 50%.
`COc1cc(OC)c2c(c1)N(Cc1ccccn1)C(=O)C21COc2cc3c(cc21)OCCO3` (stereo not drawn) [Example 9.74, 4′,6′-dimethoxy-1′-(pyridin-2-ylmethyl)-2,3-dihydrospiro[furo[2,3-g][1,4]benzodioxine-8,3′-indol]-2′(1′H)-one] came in with a melting point of 187 to 188 °C. In the series with sodium channel, the pIC50 is 6.00 to 7.00. Further, at CYP3A4, the inhibition at 10 µM is greater than 50%.
For the compound `O=C1N(Cc2ccnnc2)c2ccccc2C12COc1cc3c(cc12)CCO3` (stereo not drawn) [Example 10, 1-(pyridazin-4-ylmethyl)-5,6-dihydrospiro[benzo[1,2-b:5,4-b′]difuran-3,3′-indol]-2′(1′H)-one], the melting point lay within 187 to 189 °C. Also, the pIC50 in the series on sodium channel was 6.00 to 7.00. The inhibition at 10 µM on CYP3A4 was greater than 50%.

These data come from patent US8263606B2 (Xenon Pharmaceuticals Inc., priority 2008, dated 2012).
